2 compounds from PMC5524692, “Establishing a yeast-based screening system for discovery of human GLUT5 inhibitors and activators” (Scientific Reports, 2017) can be followed below.

Assay [1] deals with T1, GLUT5 (Homo sapiens, UniProt P22732, S72Y).
T1 construct: gene SLC2A5; GLUT5tr (truncated for the first seven amino acids at the N-terminus)
T1 sequence (P22732 8-501 S72Y): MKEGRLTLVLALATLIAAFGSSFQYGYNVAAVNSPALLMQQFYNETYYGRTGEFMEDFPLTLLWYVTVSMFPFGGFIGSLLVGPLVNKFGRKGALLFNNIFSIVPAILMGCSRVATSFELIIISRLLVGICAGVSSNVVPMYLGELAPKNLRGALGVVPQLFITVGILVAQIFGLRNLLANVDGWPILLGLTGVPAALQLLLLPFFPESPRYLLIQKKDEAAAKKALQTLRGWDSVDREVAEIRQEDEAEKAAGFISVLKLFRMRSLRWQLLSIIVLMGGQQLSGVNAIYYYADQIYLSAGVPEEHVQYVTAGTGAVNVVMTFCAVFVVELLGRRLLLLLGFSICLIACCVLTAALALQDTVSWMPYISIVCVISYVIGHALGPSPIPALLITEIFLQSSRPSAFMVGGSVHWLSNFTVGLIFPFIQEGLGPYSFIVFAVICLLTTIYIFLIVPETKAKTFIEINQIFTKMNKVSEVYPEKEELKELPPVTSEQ
Nature of the assay: inhibition of […]-fructose uptake in hxt0 yeast cells expressing GLUT5. In kind it is cell-based.

Assay [2] concerns the target T2, GLUT5 (Homo sapiens, UniProt P22732, S76I).
T2 construct: gene SLC2A5; GLUT5tr (truncated for the first seven amino acids at the N-terminus)
T2 sequence (P22732 8-501 S76I): T1 sequence (P22732 8-501 S72Y) with Y65S, S69I
The assay is described as above. Type of assay: cell-based.

Positions count from the first letter of the chain named. Like-named read-outs stand apart in the source and are kept apart here.

In the case of `O=C(O[C@@H]1Cc2c(O)cc(O)cc2O[C@@H]1c1ccc(O)c(O)c1)c1cc(O)c(O)c(O)c1` [ECG, (−)-epicatechin-gallate], the half-maximal inhibitory concentration (IC50) in assay [1] (read-out: IC50 of ECG) was 180 ± 11 µM; in assay [2] (read-out: IC50 of ECG), 140 ± 11 µM.
Turning to `CS(=O)(=O)c1ccc(Nc2ccc3c(c2)OCO3)c([N+](=O)[O-])c1` [MSNBA, N-[4-(methylsulfonyl)-2-nitrophenyl]-1,3-benzodioxol-5-amine], the IC50 in assay [1] (read-out: IC50 of MSNBA) turned out to be 26.6 ± 6.7 µM; in assay [2] (read-out: IC50 of MSNBA), 6.3 ± 0.7 µM.
